Earlier results, collected in patent US6977269B1, “Method of improving animal tissue quality” (Pioneer Hi-Bred International, Inc, priority 2001, dated 2005).
Read-outs that look alike come from different tables or passages of the source.

Columns and labels:
[1] = compared with gamma-tocopherol; cited from earlier work
[2] = parameters: unit not given here; conditions: cited from earlier work

Compound | water solubility [1] | tissue level ([2]; 400 IU/KG per steer daily for 180 days) | tissue level ([2]; 500 IU/KG per steer daily for 126 days) | tissue level ([2]; 1300 IU/KG per steer daily for 44 days) | tissue level ([2]; 2000 IU/KG per steer daily for 100 days)
Cc1c(O)cc2c(c1C)OC(C)(C(=O)O)CC2 (centres unmarked) [6-hydroxy-2,7,8-trimethylchroman-2-carboxylic acid] | more water soluble than gamma-tocopherol | – | – | – | –
vitamin E | – | 3.3 | 2.5 | 3.3 | 6.1
